The record followed here is EP1641803B1, “THIENOPYRIMIDINE DERIVATIVES AS POTASSIUM CHANNEL INHIBITORS” (Xention Limited, priority 2003, dated 2004).

Some results are limits rather than exact numbers.

For orientation: IC50 means the point on the concentration scale where inhibition reaches its midpoint. Lower therefore signals greater potency. As a reminder, the inhibition is the share of the control response that was lost under treatment. Read a low inhibition as little suppression. For orientation: % Inhibition means the drop in the measured response relative to a control, in per cent. A lower % Inhibition goes with little suppression.

One assay has as its target T1, human Kv1.5 (Homo sapiens, UniProt P22460).
T1 construct: expressed in transfected cells
Kind of assay: Kv1.5 Rb+ Efflux Assay. Conditions: inhibition of 86Rb+ efflux through Kv1.5; cells stably transfected with human Kv1.5; 10 point concentration response curves n=2; normalised to 2.5mM 4 amino-pyridine block. The class given is cell-based. Put shortly: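 Cells stably expressing human Kv1.5 loaded with ⁸⁶Rb⁺ ≥3 h, preincubated 10 min at room temperature with compound, then depolarised with high-KCl (145mM) buffer for 10 min; effluxed ⁸⁶Rb⁺ counted by Cerenkov emission (alternatively ⁸⁵Rb⁺ by atomic absorption). Inhibition normalised to 2.5mM 4-aminopyridine block; IC50 from 10-point curves, n=2, variable-slope sigmoidal fit.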

A further assay has as its target hKv1.5 (Homo sapiens, UniProt P22460). As to the kind of experiment: Kv1.5 Autopatch Electrophysiology (whole cell patch-clamp). As to conditions: compound at 1µM, room temperature (22-24°C), held at -80mV, step to 0mV for 1000ms, total charge measured. The class given is cell-based. Put shortly:
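Whole-cell automated patch-clamp at 22-24°C, compounds tested at 1µM in external bather (KCl/K-gluconate, pH 7.4; KCl/EGTA pipette). Cells held at -80mV and stepped to 0mV for 1000ms every 5s; only cells with IK > 500 pA and Rseries ≤18 MΩ used. Read-out: total charge over the whole step.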
For orientation: Patch clamp records ionic current or voltage across a cell membrane.

T1 sequence (P22460 whole entry): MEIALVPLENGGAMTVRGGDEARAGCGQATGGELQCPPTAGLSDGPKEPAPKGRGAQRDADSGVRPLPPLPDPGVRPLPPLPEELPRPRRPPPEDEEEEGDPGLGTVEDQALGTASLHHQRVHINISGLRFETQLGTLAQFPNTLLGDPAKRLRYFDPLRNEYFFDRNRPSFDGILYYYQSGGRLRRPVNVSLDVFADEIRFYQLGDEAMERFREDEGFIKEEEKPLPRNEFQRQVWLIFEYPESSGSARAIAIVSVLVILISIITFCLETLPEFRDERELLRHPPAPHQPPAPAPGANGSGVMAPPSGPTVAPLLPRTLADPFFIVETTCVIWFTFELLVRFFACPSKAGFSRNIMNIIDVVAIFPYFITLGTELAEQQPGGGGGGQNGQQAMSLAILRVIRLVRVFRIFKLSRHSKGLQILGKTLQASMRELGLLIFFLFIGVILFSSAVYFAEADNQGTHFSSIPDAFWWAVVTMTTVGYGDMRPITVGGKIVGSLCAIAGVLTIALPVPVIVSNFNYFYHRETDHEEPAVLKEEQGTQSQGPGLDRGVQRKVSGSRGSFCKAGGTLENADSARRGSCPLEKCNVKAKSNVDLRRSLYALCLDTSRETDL
Sequence of hKv1.5 (P22460 whole entry): as above

With `COCCOc1nc(NCc2ccccn2)c2c(-c3ccccc3)csc2n1` [Example 203, [2-(2-Methoxy-ethoxy)-5-phenyl-thieno[2,3-d]pyrimidin-4-yl]-pyridin-2-ylmethyl-amine], the IC50 at human Kv1.5 stood at 480 nM. Moreover, 1 µM produced 98% inhibition against hKv1.5.
`CN(C)C(=O)CNc1ncnc2scc(-c3ccccc3)c12` [Example 103, N,N-Dimethyl-2-(5-phenyl-thieno[2,3-d]pyrimidin-4-ylamino)-acetamide]: the IC50 on human Kv1.5 is > 30000 nM. This compound also had an inhibition at 1 µM against hKv1.5 of 13.6%.
For `c1ccc(CNc2ncnc3scc(-c4ccc5c(c4)OCO5)c23)nc1` [Example 314, (5-Benzo[1,3]dioxol-5-yl-thieno[2,3-d]pyrimidin-4-yl)-pyridin-2-ylmethyl-amine] the same measures were 10 nM and 97.3%.
In turn, `Cc1ccc(-c2csc3ncnc(NCc4ccccn4)c23)nc1` [Example 121, [5-(5-Methyl-pyridin-2-yl)-thieno[2,3-d]pyrimidin-4-yl]-pyridin-2-ylmethyl-amine] gave an IC50 against human Kv1.5 of 2090 nM. This compound displayed an inhibition at 1 µM on hKv1.5 of 82.6%.
For `OCCNc1nc(NCc2ccccn2)c2c(-c3ccc(F)cc3)csc2n1` [Example 212, 2-{5-(4-Fluorophenyl)-4-[(pyridin-2-ylmethyl)-amino]-thieno[2,3-d]pyrimidin-2-ylamino}-ethanol] the same measures were 7630 nM and 87%.
For `c1ccc(-c2csc3ncnc(SCc4ccccn4)c23)cc1` [Example 120, 5-Phenyl-4-(pyridin-2-ylmethylsulfanyl)-thieno[2,3-d]pyrimidine] the same measures were 12700 nM and 25%.
For `c1ccc(CNc2ncnc3scc(-c4ccc5cc[nH]c5c4)c23)nc1` [Example 323, [5-(1H-Indol-6-yl)-thieno[2,3-d]pyrimidin-4-yl]-pyridin-2-ylmethyl-amine], the IC50 against human Kv1.5 came out at 40 nM. For the same compound, at 1 µM the inhibition on hKv1.5 was 94%.
Regarding `c1csc(CNc2ncnc3scc(-c4cccs4)c23)c1` [Example 98, Thiophen-2-ylmethyl-(5-thiophen-2-yl-thieno[2,3-d]pyrimidin-4-yl)-amine], half-maximal inhibition against human Kv1.5 (IC50) required 6950 nM. Besides, on hKv1.5 (1 µM), the “% Inhibition at 1µM” value is on record as 21.0%.
In turn, `c1ccc(-c2csc3ncnc(NCc4cccs4)c23)cc1` [Example 85, (5-Phenyl-thieno[2,3-d]pyrimidin-4-yl)-thiophen-2-ylmethyl-amine] gave an IC50 at human Kv1.5 of 4210 nM. On hKv1.5, this compound displayed an inhibition at 1 µM of 24.2%.
For `COC(=O)CNc1ncnc2scc(-c3ccccc3)c12` [Example 112, (5-Phenyl-thieno[2,3-d]pyrimidin-4-ylamino)-acetic acid methyl ester], 5030 nM corresponded to half-maximal inhibition at human Kv1.5 (IC50). For the same compound, at hKv1.5, at 1 µM the inhibition was 43.5%.
At human Kv1.5, `Fc1cccc(-c2csc3ncnc(NCc4ccccn4)c23)c1` [Example 331, [5-(3-Fluorophenyl)-thieno[2,3-d]pyrimidin-4-yl]-pyridin-2-ylmethyl-amine] showed a concentration for half-maximal inhibition (IC50) of 30 nM. The compound further returned an inhibition at 1 µM against hKv1.5 of 76%.
`CCc1sc2ncnc(NCc3ccco3)c2c1-c1ccoc1` [Example 141, (6-Ethyl-5-furan-3-yl-thieno[2,3-d]pyrimidin-4-yl)-furan-2-ylmethyl-amine]: half-maximal inhibition against human Kv1.5 (IC50) required 2150 nM. Also, the inhibition at 1 µM against hKv1.5 came out at 81.3%.
